Values after ≈ are worked out from the molar mass of the structure shown. Structures can show the parent of a compound that is named as a salt.
Experiments:
[1] = target: T1, Acetylcholinesterase (Homo sapiens, UniProt P22303)
[2] = test system: Bordetella bronchiseptica; assay: Antibacterial activity against Bordetella bronchiseptica ATCC 4617 by plate dilution method; assay type: functional
[3] = test system: Staphylococcus aureus; assay: microbe, parasite or virus in culture
[4] = target: T2, Carbonic anhydrase 12 (Homo sapiens, UniProt O43570); assay: Inhibition of human CA12
[5] = target: Carbonic anhydrase 2 (Homo sapiens, UniProt P00918)
[6] = target: T3, Carbonic anhydrase 9 (Homo sapiens, UniProt Q16790); assay: Inhibition of human CA9
[7] = target: Carbonic anhydrase 1 (Homo sapiens, UniProt P00915)
[8] = Antioxidant activity assessed as DPPH radical scavenging activity; assay type: functional
[9] = test system: Mycobacterium tuberculosis; assay: microbe, parasite or virus in culture; details: H37Rv
[10] = test system: Mus musculus; assay: Antidiabetic activity against albino mouse assessed as reduction in blood glucose level at 0.2 mmol/Kg relative to control; assay type: functional; set-up: scale not given: the % may be the effect or the level left
[11] = test system: Candida albicans; assay: Antifungal activity against Candida albicans assessed as reduction in microbial growth; assay type: functional
[12] = Cytotoxicity against human Panel NCI-58 (58 carcinoma cell lines) cells; assay type: functional
[13] = test system: Cryptococcus neoformans; assay: Antifungal activity against Cryptococcus neoformans assessed as reduction in microbial growth; assay type: functional
[14] = Cytotoxicity against human HPLF cells assessed as reduction in cell viability incubated for 48 hrs by MTT assay; assay type: functional
[15] = target: T3, Carbonic anhydrase 9; assay: Inhibition of human CA9 preincubated for 15 mins by phenol red dye based stopped flow CO2 hydration assay
[16] = test system: HSC-2; assay: Cytotoxicity against human HSC-2 cells assessed as reduction in cell viability incubated for 48 hrs by MTT assay; assay type: functional
[17] = test system: HSC-3; assay: Cytotoxicity against human HSC-3 cells assessed as reduction in cell viability incubated for 48 hrs by MTT assay; assay type: functional
[18] = Cytotoxicity against human HPC cells assessed as reduction in cell viability incubated for 48 hrs by MTT assay; assay type: functional
[19] = Cytotoxicity against human HGF cells assessed as reduction in cell viability incubated for 48 hrs by MTT assay; assay type: functional
[20] = test system: Ca9-22; assay: Cytotoxicity against human Ca9-22 cells assessed as reduction in cell viability incubated for 48 hrs by MTT assay; assay type: functional
[21] = target: T2, Carbonic anhydrase 12; assay: Inhibition of human CA12 preincubated for 15 mins by phenol red dye based stopped flow CO2 hydration assay
[22] = test system: Plasmodium falciparum; assay: Antimalarial activity against chloroquine-sensitive Plasmodium falciparum NF54 measured after 72 hrs by giemsa staining based analysis; assay type: functional, organism-based; details: NF54, 72 h
[23] = target: T1, Acetylcholinesterase; remark: listed apart in the source
[24] = test system: MCF7; assay: Cytotoxicity against human MCF7 cells; assay type: functional, cell-based
[25] = test system: Candida albicans; assay: Antifungal activity against Candida albicans; assay type: functional
[26] = test system: Aspergillus niger; assay: Antifungal activity against Aspergillus niger; assay type: functional
[27] = test system: Aspergillus clavatus; assay: Antifungal activity against Aspergillus clavatus; assay type: functional
[28] = species: Mus musculus; assay: Antidepressant activity in Swiss albino mouse assessed as decrease in immobility time by tail suspension test; assay type: functional
[29] = species: Mus musculus; assay: Antidepressant activity in Swiss albino mouse assessed as decrease in immobility time by forced swimming test; assay type: functional
[30] = Growth inhibition of human Panel NCI-58 (58 carcinoma cell lines) cells by SRB method; assay type: functional
[31] = Cytotoxicity against human Panel NCI-58 (58 carcinoma cell lines) cells by SRB method; assay type: functional; details: read-out: LC50 (the source's name)
[32] = test system: Bacillus subtilis; assay: Antibacterial activity against Bacillus subtilis by agar dilution method; assay type: functional
[33] = test system: Staphylococcus aureus; assay: Antibacterial activity against Staphylococcus aureus by agar dilution method; assay type: functional
[34] = test system: Pseudomonas aeruginosa; assay: Antibacterial activity against Pseudomonas aeruginosa by agar dilution method; assay type: functional
[35] = test system: Escherichia coli; assay: Antibacterial activity against Escherichia coli by agar dilution method; assay type: functional

Chain of Carbonic anhydrase 1 (P00915 whole entry): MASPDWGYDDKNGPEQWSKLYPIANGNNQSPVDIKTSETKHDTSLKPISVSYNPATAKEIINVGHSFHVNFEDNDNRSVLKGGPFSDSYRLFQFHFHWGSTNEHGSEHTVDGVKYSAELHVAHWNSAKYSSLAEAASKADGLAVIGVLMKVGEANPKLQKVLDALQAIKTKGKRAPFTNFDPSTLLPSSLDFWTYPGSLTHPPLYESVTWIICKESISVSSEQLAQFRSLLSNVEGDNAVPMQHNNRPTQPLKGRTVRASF
T1 sequence (P22303 whole entry): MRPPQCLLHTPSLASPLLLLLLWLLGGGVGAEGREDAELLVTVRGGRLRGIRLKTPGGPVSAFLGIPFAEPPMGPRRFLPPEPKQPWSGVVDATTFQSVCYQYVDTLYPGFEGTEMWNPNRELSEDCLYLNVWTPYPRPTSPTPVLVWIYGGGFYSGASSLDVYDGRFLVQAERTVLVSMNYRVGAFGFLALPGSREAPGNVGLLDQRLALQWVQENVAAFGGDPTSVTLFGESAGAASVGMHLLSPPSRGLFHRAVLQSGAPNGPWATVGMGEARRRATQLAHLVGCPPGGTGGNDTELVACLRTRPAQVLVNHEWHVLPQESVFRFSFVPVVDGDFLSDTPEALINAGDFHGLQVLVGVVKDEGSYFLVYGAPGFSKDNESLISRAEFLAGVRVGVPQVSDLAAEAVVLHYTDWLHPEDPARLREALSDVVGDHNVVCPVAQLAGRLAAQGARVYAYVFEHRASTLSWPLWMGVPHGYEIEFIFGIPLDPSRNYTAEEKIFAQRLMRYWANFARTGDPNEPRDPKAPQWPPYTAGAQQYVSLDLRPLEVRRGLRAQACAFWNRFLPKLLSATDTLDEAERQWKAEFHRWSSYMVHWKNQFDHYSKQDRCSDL
T2 sequence (O43570 whole entry): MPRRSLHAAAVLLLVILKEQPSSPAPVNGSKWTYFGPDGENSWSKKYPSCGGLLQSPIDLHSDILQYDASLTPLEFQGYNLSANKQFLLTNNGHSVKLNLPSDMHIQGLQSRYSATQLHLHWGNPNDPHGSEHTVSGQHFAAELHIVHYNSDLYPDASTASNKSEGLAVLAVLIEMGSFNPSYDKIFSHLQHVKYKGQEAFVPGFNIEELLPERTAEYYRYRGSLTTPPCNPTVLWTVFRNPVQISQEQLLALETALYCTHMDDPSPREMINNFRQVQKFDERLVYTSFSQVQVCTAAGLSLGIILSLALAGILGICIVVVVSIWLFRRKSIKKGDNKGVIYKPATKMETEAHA

COc1ccc(C2CC(c3ccc(Br)cc3)=NN2c2ccc(S(N)(=O)=O)cc2)c(OC)c1 (stereo unspecified)
Ki [1]: 37.7 nM

O=c1oc2ccc(I)cc2cc1-c1csc(N2N=C(c3ccccc3F)CC2c2cc3ccccc3nc2Cl)n1 (stereo unspecified)
MIC [2]: 50 µg/mL (≈ 73.6 µM)

COC(=O)C1N=NN(CC(=O)N2N=C(c3nnn(Cc4ccccc4)c3C)CC2c2ccc(OC)cc2)C1C(=O)OC (stereo unspecified)
MIC [3]: 3.9 µg/mL (≈ 6.79 µM)

NS(=O)(=O)c1ccc(C(=O)N2N=C(c3ccc(F)cc3)CC2c2ccc(F)cc2)cc1 (stereo unspecified)
Ki [4]: 7.1 nM
Ki [5]: 31.7 nM
Ki [6]: 5.5 nM
Ki [7]: 87.8 nM

COc1ccc2c(c1)cc(C1CC(c3cc(Br)ccc3O)=NO1)c1nnnn12 (stereo unspecified)
IC50 [8]: 26.5 µg/mL (≈ 60.2 µM)

NNC(=O)c1ccncc1 [ISONIAZID]
MIC [9]: 6.25 µg/mL (≈ 45.6 µM)

O=C(NC1CCCCC1)NS(=O)(=O)c1ccc(N2N=C(c3ccc(Br)cc3)CC2c2ccc(F)cc2)cc1 (stereo unspecified)
Activity [10]: 16%

Cc1ccc(C2=NN(c3ccc(S(=O)(=O)NC(=O)NC4CCCCC4)cc3)C(c3ccc(F)cc3)C2)cc1 (stereo unspecified)
Activity [10]: 16%

COc1cc(C2CC(c3cccc(Nc4ccnc5cc(Cl)ccc45)c3)=NN2c2ccc(Cl)cc2)cc(OC)c1OC (stereo unspecified)
MIC50 [11]: 3.9 µg/mL
GI50 [12]: < 1000 nM
MIC50 [13]: 3.9 µg/mL

COc1ccc(C2CC(c3cccc(Nc4ccnc5cc(Cl)ccc45)c3)=NN2c2ccccc2)cc1 (stereo unspecified)
MIC50 [11]: 3.9 µg/mL
GI50 [12]: < 1000 nM
MIC50 [13]: 3.9 µg/mL

NS(=O)(=O)c1ccc(N2N=C(c3ccc(O)cc3)CC2c2ccccc2)cc1 (stereo unspecified)
CC50 [14]: 39300 nM
Ki [15]: 53.5 nM
CC50 [16]: 39300 nM
CC50 [17]: 39300 nM
CC50 [18]: 39300 nM
Ki [5]: 412 nM
CC50 [19]: 39300 nM
CC50 [20]: 39300 nM
Ki [21]: 6.2 nM
Ki [7]: 317 nM

COc1cccc2c1C(=O)c1c(O)c3c(c(O)c1C2=O)C[C@@](O)(C(=O)CO)C[C@@H]3O[C@H]1C[C@H](N)[C@H](O)[C@H](C)O1 [DOXORUBICIN HYDROCHLORIDE]
GI50 [12]: 20 nM

Cc1ccc(C2=NN(c3ccc(S(=O)(=O)NC(=O)Nc4ccc(Cl)cc4)cc3)C(c3ccc(F)cc3)C2)cc1 (stereo unspecified)
Activity [10]: 16%

COc1cc(C)c(/C=C/C(=O)c2ccc(Br)cc2)cc1C(C)C
IC50 [22]: < 2000 nM

COc1ccc(C2=CC(c3cc(C(C)C)c(OC)cc3C)N(C(=O)OC(C)C)N2C(=O)OC(C)C)cc1OC (stereo unspecified)
IC50 [22]: < 2000 nM

COc1ccc2c(c1)cc(/C=C/C(=O)c1cc(Br)ccc1O)c1nnnn12
IC50 [8]: 25.4 µg/mL (≈ 59.7 µM)

COc1ccc(C2CC(c3ccc(F)cc3)=NN2c2ccc(S(N)(=O)=O)cc2)cc1OC (stereo unspecified)
Ki [1]: 37.7 nM

Cc1ccc(C(=O)/C=C/c2ccc(N3CCCCC3)cc2)s1
IC50 [23]: 130 nM

C[C@]12CC[C@@H]3c4ccc(O)cc4CC[C@H]3[C@@H]1CC1C2=NN(c2ccccc2)C1c1cccs1 (stereo partly specified)
IC50 [24]: 43 nM

O=C(c1ccncc1)N1N=C(c2ccc(Br)cc2)CC1c1cc2ccccc2nc1Cl (stereo unspecified)
MIC [25]: 12.5 µg/mL (≈ 25.4 µM)
MIC [26]: 12.5 µg/mL (≈ 25.4 µM)
MIC [27]: 50 µg/mL (≈ 102 µM)

O=C(c1ccncc1)N1N=C(c2ccccc2Cl)CC1c1cc2ccccc2nc1Cl (stereo unspecified)
MIC [25]: 12.5 µg/mL (≈ 27.9 µM)
MIC [26]: 12.5 µg/mL (≈ 27.9 µM)
MIC [27]: 12.5 µg/mL (≈ 27.9 µM)

Cc1ccc2cc(C3CC(c4cc(Cl)sc4Cl)=NN3)c(Cl)nc2c1 (stereo unspecified)
IC50 [23]: 150 nM

COc1ccc(C2CC(c3ccc(-c4cc(F)cc(F)c4)nc3C)=NN2)cc1OC (stereo unspecified)
Time [28]: 70.33 s
MIC [9]: 12.5 µg/mL (≈ 30.5 µM)
Time [29]: 66.67 s

NS(=O)(=O)c1ccc(C(=O)N2N=C(c3ccccc3)CC2c2ccc(F)cc2)cc1 (stereo unspecified)
Ki [4]: 7.1 nM
Ki [5]: 31.7 nM
Ki [7]: 87.8 nM

CCOC(=O)C1N=NN(CC(=O)N2N=C(c3nnn(Cc4ccccc4)c3C)CC2c2cccs2)C1C(=O)OCC (stereo unspecified)
MIC [3]: 3.9 µg/mL (≈ 6.74 µM)

COc1cc(C2CC(c3ccc(Nc4nc(NCCO)nc(NCCO)n4)cc3)=NN2c2cc(Cl)cc(Cl)c2)cc(OC)c1OC (stereo unspecified)
GI50 [30]: 569 nM
CC50 [31]: 5150 nM

COC(=O)C1N=NN(CC(=O)N2N=C(c3ccccc3)CC2c2ccc(OC)cc2)C1C(=O)OC (stereo unspecified)
MIC [3]: 3.9 µg/mL (≈ 8.13 µM)

Oc1ccc(Br)cc1C1=NOC(c2cc3ccccc3n3nnnc23)C1 (stereo unspecified)
MIC [32]: 25 µg/mL (≈ 60.9 µM)
MIC [33]: 25 µg/mL (≈ 60.9 µM)
MIC [34]: 25 µg/mL (≈ 60.9 µM)
MIC [35]: 25 µg/mL (≈ 60.9 µM)

Source: ChEMBL document CHEMBL5260848, “Recent advancements in the development of bioactive pyrazoline derivatives” (Eur J Med Chem, 2020)
